Data reported in US8242167B2, “Mannose derivatives for killing tumor cells” (University of Miami, priority 2006, dated 2012).

Columns and labels:
Grp78 and Grp94 [1] = test: Western blot of Grp78 and Grp94 in models of hypoxia A, B & C; type: cell-based
Procedure: (§1) Western Blot analysis. Cells were plated at 10^4 cell cm^−2 and grown under drug treatment for the indicated times. At the end of the treatment period, cells were collected and lysed with 1% SDS in 80 mM Tris-HCL (ph 7.4) buffer supplemented with a proteinase inhibitor cocktail. DNA was fragmented by sonication and protein concentrations were measured by microBCA protein assay kit (Pierce, USA). Samples were mixed with 2× Laemmli sample buffer (Bio-Rad, USA) and run on a SDS-polyacrylamide gel. Gels were transferred to nitrocellulose membranes (Amersham, USA) and probed with anti-KDEL (Stressgen, Canada) (for Grp78 and Grp94); polyclonal anti-CHOP/[…] (Santa Cruz, USA), polyclonal anti-erbB2 (DAKO, USA). Following probing, membranes were washed and incubated with an HRP conjugated secondary antibody. Chemiluminesence was detected by exposure to film. Where indicated, membranes were stripped with Stripping Buffer (Pierce, USA) and reprobed with anti-actin (Sigma, USA) primary antibody. To analyze conconavalin A (ConA) binding, the membranes were incubated with 0.2 μg/ml HRP-conjugated ConA, and chemiluminescence was detected as described.
Three in vitro models of hypoxia. We previously characterized three models of anaerobiosis as follows: Model A are tumor cells treated with 0.05 μg/ml of oligomycin (a mitochondrial inhibitor of ATP synthase); Model B are cells that are deficient in mitochondrial DNA and Model C are cells treated in an hypoxic (0.5% O^2) chamber (Reming Bioinstruments, Redfield, N.Y.).

CHOP/GADD154 = test: Western blot of CHOP/GADD154 in SKBR3 cells; type: cell-based, human; settings: SKBR3, normoxia, 24 hrs; 8 mM sugar analog
Procedure: as §1

[2] = system: glycoproteins (ConA binding) in SKBR3 cells; test: HRP-conjugated ConA blot of SKBR3 cell extracts; type: cell-based, human; settings: SKBR3, 48 hr, 8 mM sugar analog
Procedure: as §1

Grp78 and Grp94 [3] = test: Western blot of Grp78 and Grp94 (unfolded protein response) in SKBR3 cells under normoxia; type: cell-based, human; settings: for expression of chaperones Grp78 and Grp94: SKBR3, normoxia, 24 hrs, 8 mM sugar analog, tunicamycin 1 micro g/ml; for up-regulation of GRP 78 and 94, dose dependence: select tumor cells, normoxic conditions
Procedure: as §1

SKBR3 cells [4] = test: Growth inhibitory and cytotoxicity assay in SKBR3 cells under normoxia; type: cell-based, human; settings: for reversal of 2-DG toxicity by added sugar: SKBR3, 1 mM sugar with increasing 2-DG, trypan blue exclusion; for cytotoxicity measured by trypan blue exclusion: SKBR3, 72 hrs, normal oxygen conditions
Procedure: Cytotoxicity assay and Rapid DNA Content Analysis. Cells were incubated for 24 hr at 37° C. in 5% CO2 at which time drug treatments began and were continued for 72 hr. At this time, attached cells were trypsinized and combined with their respective culture media followed by centrifugation at 400 g for 5 min. Pellets containing the cells were either resuspended in 1.5 ml of a medium/trypan blue mixture for cytotoxicity assays or propidium iodide/hypotonic citrate staining solution for determining the nuclear DNA content and cell cycle by a Coulter XL flow cytometer. A minimum of 10,000 cells were analyzed to generate a DNA distribution histogram.
(§2) Cytotoxicity assay. Cells were incubated for 24 hr at 37° C. in 5% CO2 at which time drug treatments began and continued for 72 hr. At this time, attached cells were trypsinized and combined with their respective culture media followed by centrifugation at 400 g for 5 min. The pellets were resuspended in 1 ml of Hanks solution and analyzed by Vi-Cell (Beckman Coulter, USA) cell viability analyzer.

1420, pancreatic cancer = test: Cytotoxicity under normoxia, 1420; type: cell-based, human; settings: 1420; 1 mM sugar with increasing 2-DG; trypan blue exclusion
Procedure: (§3) Cell types. The Δ^0 cells were isolated by treating osteosarcoma cell line 143B (wt) with ethidium bromide for prolonged periods, as previously described (9). Because the Δ^0 cells are uridine and pyruvate auxotrophs, they were grown in DMEM (GIBCO, USA) supplemented with 10% fetal calf serum, 50 μg/ml of uridine and 100 mM sodium pyruvate. The SKBR3 cell line was obtained from Dr. Joseph Rosenblatt's laboratory at the University of Miami. The pancreatic cancer cell lines 1420 and 1469, the ovarian cancer cell line SKOV3, the cervical cancer cell line HELA, and the osteosarcoma cell line 143B were purchased from ATCC. The non-small cell lung cancer and small cell lung cancer cell lines were derived from patients by Dr. Niramol Savaraj at the University of Miami. SKBR3 and SKOV3 cells were grown in McCoy's 5A medium; 1420, 1469 and 143B were grown in DMEM (GIBCO, USA); and HELA was grown in MEM (GIBCO, USA). The media was supplemented with 10% fetal bovine serum. All cells were grown under 5% CO2 and 37° C.
as §2

tumor cell lines = test: Toxicity survey of tumor cell lines under normoxic conditions; type: cell-based; settings: for toxicity to select tumor cell types: normoxia; for tumor cell lines undergoing significant cell death: 6 mM, normal oxygen tension
Procedure: as §3, §2

erbB2 = test: Western blot of erbB2 in SKBR3 cells; type: cell-based, human
Procedure: as §1

fowl plague virus = settings: chick embryo fibroblasts infected with fowl plague virus; cited from earlier work
SKBR3 cells [5] = test: ATP quantification assay in SKBR3 cells; type: cell-based, human; settings: 6 hours, 2-FDG vs. 2-DG
Procedure: ATP quantitation assay. The ATP lite kit (Perkin Elmer) can be used to quantify levels of ATP. About 50 μL of cell lysis solution were added to 100 μL of cell suspension in a white-bottom 96-well plate. The plate was incubated at room temperature on a shaker (700 rpm) for five minutes. 50 μL of substrate solution was then added to the wells and shaken (700 rpm) for another five minutes at room temperature. The plate was then dark adapted for ten minutes and measured for luminescence.
ATP quantification assay. The ATP lite kit (Perkin Elmer) can be used to quantify levels of ATP. About […] of cell lysis solution were added to […] of cell suspension in a white-bottom 96-well plate. The plate was incubated at room temperature on a shaker (700 rpm) for five minutes. About […] solution were then added to the wells and shaken (700 rpm) for another five minutes at room temperature. The plate was then dark adapted for ten minutes and measured for luminescence. To normalize the reduction of ATP production to growth inhibition which results due to treatment with 2-DG or 2-FDG, parallel experiments were run to measure the total protein concentration using a microBCA protein detection kit (Pierce, Rockford, Ill.).

SKBR3 cells [6] = test: Lactic acid assay in SKBR3 cells; type: cell-based, human; settings: 2 mM, 24 hr, 2-FDG vs. 2-DG
Procedure: Lactic acid assay. Lactic acid was measured by adding 0.025 ml of deproteinated medium, from treated or non-treated cultures, to a reaction mixture containing 0.1 ml of lactic acid dehydrogenase (1000 units/ml), 2 ml of glycine buffer (glycine, 0.6 mol/L, and hydrazine, pH 9.2), and 1.66 mg/ml NAD. Deproteinization occurred by treating 0.5 ml of medium from test cultures with 1 ml of perchloric acid at 8% w/v, vortexing for 30 s, then incubating this mixture at 4° C. for 5 min, and centrifuging at 1500 g for 10 min. The supernatant was centrifuged three times more, and 0.025 ml of a final clear supernatant was used for lactic acid determinations. Formation of NADH was measured with a Beckman DUr 520 UV/vis spectrophotometer at 340 nm, which directly corresponds to lactic acid levels as determined by a lactate standard curve.
Lactic acid assay. Lactic acid was measured by adding 0.025 ml of deproteinated medium, from treated or non-treated cultures, to a reaction mixture containing 0.1 ml of lactic dehydrogenase (1000 units/ml), 2 ml of glycine buffer (glycine, 0.6 mol/L, and hydrazine, pH 9.2), and 1.66 mg/ml NAD. […] Formation of NADH was measured with a Beckman DUr 520 UV/vis spectrophotometer at 340 nm, which directly corresponds to lactic acid levels as determined by a lactate standard curve.

SKBR3 cells [7] = test: Cytotoxicity in SKBR3 cells under hypoxic conditions; type: cell-based, human; settings: 2-FDG vs. 2-DG
Procedure: as §2, with “Hypoxia. For studies in hypoxic conditions (Model C), cells were seeded and incubated for 24 hr at 37° C. and 5% CO2 as described below for direct cytotoxicity assays. After the 24 hr incubation, cells received drug treatment and were placed in a Pro-Ox in vitro chamber attached to a model 110 oxygen controller ([…] Bioinstruments Co. […] Cytotoxicity” for “Cytotoxicity”

Q: Which “synthesis of chaperones Grp78 and Grp94” value (Grp78 and Grp94 [1]; all three hypoxia models (positive control)) does the source give for tunicamycin [reference compound] here?
A: induce the synthesis of these chaperones in all three models

Q: And the “induction of GADD154/CHOP” value (CHOP/GADD154)?
A: induced

Q: And the “ConA binding of glycoproteins” value [2]?
A: decrease ConA binding

Q: What about the “expression of chaperones Grp78 and Grp94” value (Grp78 and Grp94 [3]) of the same compound?
A: both Grp78 and Grp94 are upregulated

Q: For `O=C(CO)[C@@H](O)[C@H](O)[C@H](O)CO` [fructose, reference compound], which “reversal of 2-DG toxicity by added sugar” value (SKBR3 cells [4]) is on record?
A: had no effect

Q: And the “reversal of 2-DG toxicity by added sugar” value (1420, pancreatic cancer)?
A: had no effect

Q: Which “toxicity to select tumor cell types” value (tumor cell lines) does the source give for `O=C[C@@H](Cl)[C@@H](O)[C@H](O)[C@H](O)CO` [2-CM, 2-deoxy-2-chloro-mannose] here?
A: toxic to select tumor cell types growing under normoxia

Q: Which results are given for `O=C[C@@H](F)[C@@H](O)[C@H](O)[C@H](O)CO` [2-FDM, 2-deoxy-2-fluoro-mannose]?
A: molecular weight of erbB2 (erbB2): decreased the molecular weight of erbB2; upregulation of the UPR (Grp78, Grp94) (Grp78 and Grp94 [1]; hypoxia model C): both chaperones are upregulated; upregulation of the UPR (Grp78, Grp94) (Grp78 and Grp94 [1]; hypoxia models A and B): no significant upregulation of the UPR; cytotoxicity measured by trypan blue exclusion (SKBR3 cells [4]): toxic; rank order in growth inhibiting and killing SKBR3 cells (SKBR3 cells [4]; normoxia): 2-DG>2-FDM>>>2-FDG; induction of GADD154/CHOP (CHOP/GADD154): induced; ConA binding of glycoproteins [2]: decrease ConA binding; toxicity in 2-DG sensitive and 2-DG resistant cell types (tumor cell lines; 4 mM): caused toxicity in 2-DG sensitive but not 2-DG resistant cell types; tumor cell lines undergoing significant cell death (tumor cell lines): 6 out of 15; toxicity to select tumor cell types (tumor cell lines): toxic to select tumor cell types growing under normoxia; expression of chaperones Grp78 and Grp94 (Grp78 and Grp94 [3]): both Grp78 and Grp94 are upregulated; up-regulation of GRP 78 and 94, dose dependence (Grp78 and Grp94 [3]): up-regulated by 2-DG and 2-FM in a dose-dependent manner; order of potency to inhibit viral glycoprotein synthesis (fowl plague virus): 2-DG>2-FDM>2-FDG

Q: For `C[C@H](O)[C@@H](O)[C@@H](O)[C@H](O)C=O` [fucose, reference compound], which “reversal of 2-DG toxicity by added sugar” value (SKBR3 cells [4]) is on record?
A: had no effect

Q: And the “reversal of 2-DG toxicity by added sugar” value (1420, pancreatic cancer)?
A: had no effect

Q: Which results are given for `O=C[C@H](F)[C@@H](O)[C@H](O)[C@H](O)CO` [2-FDG, 2-deoxy-2-fluoro-glucose, reference compound]?
A: molecular weight of erbB2 (erbB2): had no effect; cytotoxicity measured by trypan blue exclusion (SKBR3 cells [4]): is not; rank order in growth inhibiting and killing SKBR3 cells (SKBR3 cells [4]; normoxia): 2-DG>2-FDM>>>2-FDG; toxicity to SKBR3 cells grown under normoxia (FIG. 1) (SKBR3 cells [4]; normoxia): neither of these agents caused toxicity; induction of GADD154/CHOP (CHOP/GADD154): not; ConA binding of glycoproteins [2]: no reduction in ConA binding; tumor cell lines undergoing significant cell death (tumor cell lines): not; toxicity to select tumor cell types (tumor cell lines): not; toxicity to cell types that are sensitive to 2-DG (tumor cell lines; normoxic conditions): shows no toxicity; expression of chaperones Grp78 and Grp94 (Grp78 and Grp94 [3]): does not increase the levels of these chaperones as much as 2-DG or 2-FDM; up-regulation of GRP 78 and 94, dose dependence (Grp78 and Grp94 [3]): not; ATP depletion (SKBR3 cells [5]): ATP depletion was more prominent; order of potency to inhibit viral glycoprotein synthesis (fowl plague virus): 2-DG>2-FDM>2-FDG; inhibition of lactate levels (a measure of glycolysis) (SKBR3 cells [6]): inhibited lactate levels (a measure of glycolysis) better than the latter; toxicity under hypoxic conditions (SKBR3 cells [7]): more toxic than 2-DG

Q: With `NC(=O)C(=O)O` [oxamate, reference compound] as the compound, how does the “cytotoxicity measured by trypan blue exclusion” value (SKBR3 cells [4]) read?
A: not toxic
